Marks after values point to notes of the source that are not given here.
The compounds below were run on female mice of the C57BL/6J strain (assay: Lowering of serum cholesterol level in mice subjected to a fatty diet (single oral dose)). Details: total serum cholesterol; female C57BL/6J mice on fatty diet (1.25% cholesterol, 0.5% cholic acid); single dose 10 mg/kg by tubage.
Type: in vivo
Protocol: The antiatheromatous activity of the compounds according to the invention was evaluated as a function of their ability to lower the serum cholesterol level in mice subjected to a fatty diet. […] This correlation affords a test which is more rapid than direct experiments on the atheromatous plaque, which require a lengthy treatment of the animals and an expensive histological study of the walls of the aortic arch.
The test used consists in administering a single dose of the compound to female mice of the C57BL/6J strain. The protocol is as follows: On the first day (D0), the mice are fasted from 9 am to 5 pm, a blood sample being taken at 2 pm. At 5 pm, a given amount of food (a fatty diet comprising 1.25% of cholesterol and 0.5% of cholic acid) is distributed. On the second day (D1), the food leftovers are weighed at 9 am and the mice are fasted from 9 am to 2 pm. A blood sample is taken at 2 pm. For the treated groups of mice, the compound is administered at 9 am on the second day (D1) by tubage in the form of a suspension in a 3% aqueous solution of gum. The control groups receive only the aqueous gum.
[…] The total serum cholesterol is assayed and the results are expressed as the percentage inhibition of the increase in cholesterolemia compared with the control group.
For `N#Cc1ccc(C(=O)c2ccc(O[C@@H]3OC[C@H](O)[C@H](O)[C@H]3O)cc2)cc1` [Example 19, [4-(4-Cyanobenzoyl)phenyl] α-L-arabinopyranoside], the “Activity (%): percentage inhibition of the increase in cholesterolemia compared with the control group” value was −31* %. `CC(=O)O[C@@H]1[C@@H](OC(C)=O)[C@H](Oc2ccc(C(=O)c3ccc(C#N)cc3)cc2)OC[C@@H]1OC(C)=O` [Example 18, [4-(4-Cyanobenzoyl)phenyl] 2,3,4-tri-O-acetyl-α-L-arabinopyranoside] was tested, and the “Activity (%): percentage inhibition of the increase in cholesterolemia compared with the control group” value was −2* %.

Same assay, conditions: total serum cholesterol; female C57BL/6J mice on fatty diet (1.25% cholesterol, 0.5% cholic acid); single dose 100 mg/kg by tubage
With `CC(=O)O[C@@H]1[C@@H](Oc2ccc(C(=O)c3ccc(C#N)cc3)cc2)OC[C@H](OC(C)=O)[C@H]1OC(C)=O` [Example 12, [4-(4-Cyanobenzoyl)phenyl] 2,3,4-tri-O-acetyl-β-L-xylopyranoside] the “Activity (%): percentage inhibition of the increase in cholesterolemia compared with the control group” value was −45%. `N#Cc1ccc(C(=O)c2ccc(O[C@@H]3OC[C@@H](O)[C@H](O)[C@@H]3O)cc2)cc1` [Example 3, [4-(4-Cyanobenzoyl)phenyl] β-D-lyxopyranoside] was tested, and the “Activity (%): percentage inhibition of the increase in cholesterolemia compared with the control group” value was −28%. `N#Cc1ccc(C(=O)c2ccc(O[C@H]3OC[C@H](O)[C@H](O)[C@H]3O)cc2)cc1` [Example 11, [4-(4-Cyanobenzoyl)phenyl] β-L-arabinopyranoside] was tested, and the “Activity (%): percentage inhibition of the increase in cholesterolemia compared with the control group” value was −31%. In the case of `CC(=O)O[C@@H]1[C@@H](OC(C)=O)[C@@H](Oc2ccc(C(=O)c3ccc(C#N)cc3)cc2)OC[C@@H]1OC(C)=O` [Example 10, [4-(4-Cyanobenzoyl)phenyl] 2,3,4-tri-O-acetyl-β-L-arabinopyranoside], the “Activity (%): percentage inhibition of the increase in cholesterolemia compared with the control group” value is reported as −22%. With `C[C@@H]1O[C@H](Oc2ccc(C(=O)c3ccc(C#N)cc3)cc2)[C@H](O)[C@H](O)[C@H]1O` [Example 17, [4-(4-Cyanobenzoyl)phenyl] β-L-rhamnopyranoside] the “Activity (%): percentage inhibition of the increase in cholesterolemia compared with the control group” value was −50%. In the case of `CC(=O)O[C@@H]1[C@H](Oc2ccc(C(=O)c3ccc(C#N)cc3)cc2)OC[C@H](OC(C)=O)[C@H]1OC(C)=O` [Example 14, [4-(4-Cyanobenzoyl)phenyl] 2,3,4-tri-O-acetyl-α-L-xylopyranoside], the “Activity (%): percentage inhibition of the increase in cholesterolemia compared with the control group” value is reported as −36%. For `CC(=O)O[C@H]1[C@H](Oc2ccc(C(=O)c3ccc(C#N)cc3)cc2)OC[C@@H](OC(C)=O)[C@H]1OC(C)=O` [Example 4, [4-(4-Cyanobenzoyl)phenyl] 2,3,4-tri-O-acetyl-β-D-ribopyranoside], the “Activity (%): percentage inhibition of the increase in cholesterolemia compared with the control group” value was −23%. For `N#Cc1ccc(C(=O)c2ccc(O[C@@H]3O[C@H](CO)[C@@H](O)[C@H](O)[C@@H]3O)cc2)cc1` [Example 9, [4-(4-Cyanobenzoyl)phenyl] β-D-mannopyranoside], the “Activity (%): percentage inhibition of the increase in cholesterolemia compared with the control group” value was −39%. `CC(=O)OC[C@H]1O[C@@H](Oc2ccc(C(=O)c3ccc(C#N)cc3)cc2)[C@H](OC(C)=O)[C@@H](OC(C)=O)[C@H]1OC(C)=O` [Example 6, [4-(4-Cyanobenzoyl)phenyl] 2,3,4,6-tetra-O-acetyl-β-D-galactopyranoside] was tested, and the “Activity (%): percentage inhibition of the increase in cholesterolemia compared with the control group” value was −33%. In the case of `CC(=O)OC[C@H]1O[C@@H](Oc2ccc(C(=O)c3ccc(C#N)cc3)cc2)[C@@H](OC(C)=O)[C@@H](OC(C)=O)[C@@H]1OC(C)=O` [Example 8, [4-(4-Cyanobenzoyl)phenyl] 2,3,4,6-tetra-O-acetyl-β-D-mannopyranoside], the “Activity (%): percentage inhibition of the increase in cholesterolemia compared with the control group” value is reported as −17%. For `N#Cc1ccc(C(=O)c2ccc(O[C@@H]3OC[C@@H](O)[C@@H](O)[C@@H]3O)cc2)cc1` [Example 2, [4-(4-Cyanobenzoyl)phenyl] β-D-arabinopyranoside], the “Activity (%): percentage inhibition of the increase in cholesterolemia compared with the control group” value was −29%. For `N#Cc1ccc(C(=O)c2ccc(O[C@H]3OC[C@H](O)[C@@H](O)[C@@H]3O)cc2)cc1` [Example 13, [4-(4-Cyanobenzoyl)phenyl] β-L-xylopyranoside], the “Activity (%): percentage inhibition of the increase in cholesterolemia compared with the control group” value was −45%. For `N#Cc1ccc(C(=O)c2ccc(O[C@@H]3O[C@H](CO)[C@H](O)[C@H](O)[C@H]3O)cc2)cc1` [Example 7, [4-(4-Cyanobenzoyl)phenyl] β-D-galactopyranoside], the “Activity (%): percentage inhibition of the increase in cholesterolemia compared with the control group” value was −32%. In the case of `N#Cc1ccc(C(=O)c2ccc(O[C@@H]3OC[C@@H](O)[C@@H](O)[C@H]3O)cc2)cc1` [Example 5, [4-(4-Cyanobenzoyl)phenyl] β-D-ribopyranoside], the “Activity (%): percentage inhibition of the increase in cholesterolemia compared with the control group” value is reported as −36%. With `CC(=O)O[C@@H]1[C@@H](OC(C)=O)[C@H](C)O[C@H](Oc2ccc(C(=O)c3ccc(C#N)cc3)cc2)[C@@H]1OC(C)=O` [Example 16, [4-(4-Cyanobenzoyl)phenyl] 2,3,4-tri-O-acetyl-β-L-rhamnopyranoside] the “Activity (%): percentage inhibition of the increase in cholesterolemia compared with the control group” value was −37%. In the case of `N#Cc1ccc(C(=O)c2ccc(O[C@@H]3OC[C@H](O)[C@@H](O)[C@@H]3O)cc2)cc1` [Example 15, [4-(4-Cyanobenzoyl)phenyl] α-L-xylopyranoside], the “Activity (%): percentage inhibition of the increase in cholesterolemia compared with the control group” value is reported as −32%. `CC(=O)O[C@@H]1[C@H](Oc2ccc(C(=O)c3ccc(C#N)cc3)cc2)OC[C@@H](OC(C)=O)[C@H]1OC(C)=O` [Example 1, [4-(4-Cyanobenzoyl)phenyl] 2,3,4-tri-O-acetyl-β-D-arabinopyranoside] was tested, and the “Activity (%): percentage inhibition of the increase in cholesterolemia compared with the control group” value was −25%.

— patent US20030100515A1, “Benzophenone glycopyranosides, preparation and therapeutic use” (priority 1999, published 2003)
